According to patent US20260108615A1, “SELF-ASSEMBLED MUCOADHESIVE BIOPOLYMER PARTICLE RELEASE SYSTEM AND PREPARATION METHOD THEREOF” (SZEGEDI TUDOMÁNYEGYETEM, priority 2021, published 2026):
Blank lines part the entries; values can stand above or below the compound they belong to.

Legend:
Type in all cases: physicochemical
[1] = in-vitro drug-releasing profile of KETO; details: FIG. 17
[2] = in-vitro drug-releasing profile of HBA; details: FIG. 18
[3] = in vitro DOX release through cellulose membrane into PBS buffer
Experimental: The DOX release was measured according to the following: the in vitro experiments of the DOX releasing were performed using a cellulose membrane (Sigma-Aldrich, avg. flat width 10 mm (0.4 in.)). The released DOX amount from the bare and conjugated form was spectrophotometrically measured by monitoring the change in the intensity of the characteristic absorbance peak of DOX at λ=481 nm. DOX concentration is directly proportional to the maximal absorption values estimated at 481 nm [CDOX (mg/ml) (A at 481 nm)/18.836; R^2=0.996], according to the calibration curve previously determined within the range of 0-0.066 mg/ml. Solid powder of pure drug and conjugated form (corresponding to 0.045 mg/ml of DOX) were inserted in a cellulose membrane that was closed and dropped into 20 ml of a PBS buffer solution with pH=7.4 (37° C.; 0.9 wt % NaCl content). 3 ml of the aqueous solution was pulled from the release media at selected interval times and DOX concentration was measured. The release profiles of DOX released from different forms are shown in FIG. 14a in percent form and FIG. 14b in concentration form, releasing from the bare DOX was too fast a process with a maximum releasing percent of 78%. […] According to Table 2, releasing from the bare DOX data were fitted with the Higuchi model that describes the drug release a diffusion process based on Fick's law which is square root time-dependent, assumes the diffusivity of the drug is constant.

KETO releasing process [1]: fast releasing process for the first 5 h
SMILES: CC(C(=O)O)c1cccc(C(=O)c2ccccc2)c1 (stereo not shown) [bare KETO, ketoprofen]

SMILES: OCc1ccc(O)cc1 [Bare HBA, 4-hydroxybenzyl alcohol]
HBA releasing process [2]: very rapid release process for the first 3 h

concentration of DOX in PBS buffer solution after one day (decomposition) ([3]; PBS at 37° C., after one day of release): continuously decreased
maximum releasing percent ([3]; PBS pH=7.4, 37° C., 0.9 wt % NaCl, cellulose membrane): 78%
SMILES: COc1cccc2c1C(=O)c1c(O)c3c(c(O)c1C2=O)C[C@@](O)(C(=O)CO)C[C@@H]3O[C@H]1C[C@H](N)[C@H](O)[C@H](C)O1 [Pure DOX, doxorubicin]
First-order model k ([3]; fit of DOX release data): 0.2689
Higuchi model k ([3]; fit of DOX release data): 36.808
Hixson-Crowell model k ([3]; fit of DOX release data): 0.0063
Korsmeyer-Peppas model k ([3]; fit of DOX release data): 26.18
Korsmeyer-Peppas model n (release exponent) ([3]; fit of DOX release data): 0.763
Zero-order model k ([3]; fit of DOX release data): 13.11
